# Results taken from patent US4973554A, “Affinity process for trypsin purification and stabilization” (National Research Council of Canada, priority 1987, dated 1990).
# T1: trypsin (Bos taurus, UniProt P00760)
# T1 sequence (P00760 24-246): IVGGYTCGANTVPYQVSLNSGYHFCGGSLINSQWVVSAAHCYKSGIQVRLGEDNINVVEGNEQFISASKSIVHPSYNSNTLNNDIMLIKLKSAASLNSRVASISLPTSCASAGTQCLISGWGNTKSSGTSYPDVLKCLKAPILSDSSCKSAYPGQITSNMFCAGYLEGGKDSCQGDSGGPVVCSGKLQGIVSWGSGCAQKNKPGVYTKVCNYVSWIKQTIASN
# B1: trypsin (protein, UniProt P00760 24-246, looked up)
# Serine protease 1: IVGGYTCGANTVPYQVSLNSGYHFCGGSLINSQWVVSAAHCYKSGIQVRLGEDNINVVEGNEQFISASKSIVHPSYNSNTLNNDIMLIKLKSAASLNSRVASISLPTSCASAGTQCLISGWGNTKSSGTSYPDVLKCLKAPILSDSSCKSAYPGQITSNMFCAGYLEGGKDSCQGDSGGPVVCSGKLQGIVSWGSGCAQKNKPGVYTKVCNYVSWIKQTIASN
# Experiments:
# trypsin [1] = target: T1, trypsin; test: Elution of bound trypsin from affinity polymer during ultrafiltration; conditions: for elution of bound trypsin from polymer 5:1 by eluting solution: 500 mM arginine with 10 mM Ca++ in Tris pH 8, 2M KCl with 10 mM Ca++ in pH 8 Tris, 10 mM m-aminobenzamidine, data not shown
# Method: Investigation was next conducted on the eluting characteristics of four agents (FIG. 1).
# Tests were also performed to determine whether the elution of trypsin with arginine was affected by the acrylamide:monomer ratio and the polymer concentration.
# trypsin [2] = target: T1, trypsin; test: Trypsin inhibition kinetics, substrate Nα-benzoyl-L-arginine p-nitroanilide; format: biochemical
# trypsin [3] = target: T1, trypsin; conditions: with respect to substrate benzoyl-L-arginine p-nitroanilide; literature; cited from earlier work
# chymotrypsin = conditions: Adamski-Medda et al, 1981; cited from earlier work
# trypsin [4] = conditions: Adamski-Medda et al, 1981; cited from earlier work
# trypsin [5] = target: T1, trypsin; test: Trypsin storage stability with/without affinity polymer (trypsin activity); format: physicochemical; conditions: without affinity polymer
# Method: Trypsin can be adsorbed by the affinity polymer and stored until this enzyme is required for use or further processing. […] Without the affinity polymer, the trypsin retained only half of its activity at 25° C. after three days even though this solution was stabilized by adding an appropriate amount of calcium. It was further shown that at 4° C. without the affinity polymer trypsin retained approximately 70% of its original activity after 10 days.
molecule,measurement,setting,value
[Cl-].[K+] [KCl],elution of bound trypsin from polymer 5:1 by eluting solution,trypsin [1],eluted easily
"N=C(N)NCCC[C@H](N)C(=O)O [arginine, L-arginine]",elution of bound trypsin from polymer 5:1 by eluting solution,trypsin [1],eluted easily
same,eluting characteristics of agents (FIG. 1),"trypsin [1]; polymer 5:1 at 0.75% containing 300 mg trypsin, four agents compared",most effective eluting agent
same,Ki,trypsin [2],41 ± 3 mM
same,mechanism of trypsin inhibition,"trypsin [2]; with respect to substrate Nα-benzoyl-L-arginine p-nitroanilide, data not shown",competitive inhibitor
N=C(N)c1cccc(N)c1 [m-aminobenzamidine],trypsin inhibition kinetics (mechanism),trypsin [3],competitive manner
same,elution of bound trypsin from polymer 5:1 by eluting solution,trypsin [1],eluted easily
same,"inhibitor strength among ortho, meta, para aminobenzamidine",trypsin [2]; position of amino group compared,strongest inhibitor
dextran-p-aminobenzamidine,chymotrypsin in the filtrate in presence of macroligand,chymotrypsin,65%
same,trypsin in the filtrate in presence of macroligand,trypsin [4],24%
B1,original trypsin activity retained,"trypsin [5]; 4° C., 10 days",approximately 70%
same,trypsin activity retained,"trypsin [5]; 25° C., three days, calcium added",half
